{"source": "patent US11331396B2", "about": "“Development of injectable fiducial markers for image guided radiotherapy with dual MRI and CT visibility” (TECHNICAL UNIVERSITY OF DENMARK, priority 2017, dated 2022)", "assay": "In-vitro confocal microscopy of markers containing fluorescent amphiphiles in PBS", "assay_type": "physicochemical", "conditions": "LAP:GTH with co-solvent (5% PC or 10% EtOH)", "method": "DOPE-RhB was dissolved in EtOH or triglycerides and added to the formulations in amounts resulting in the desired final concentrations (˜1.3*10^−3 ug/uL) in formulations consisting of lactose acetate:propionate 1:1/lactose isobutyrate co-formulated with either 25 wt % EtOH or 40 wt % triglyceride (GTO/GTH), with or without 10 wt % EtOH or 5 wt % PC (˜240 uL formulations in total). The DOPE-RhB solutions were made from a motherstock of 1 mg/mL DOPE-RhB in EtOH with serial dilution into EtOH/triglyceride (GTO/GTH). The injected formulations were imaged in PBS in 8-well microscope slides under the confocal microscope. […]\nLaser Scanning Confocal Microscopy was performed using a Leica TCS SP5 Scanning Laser Confocal Microscope operated using a 61× wet objective and a 561 nm excitation DPPS Laser. Samples (˜5-10 uL) were prepared in 8 well microscope slides containing PBS buffer and imaged on the same day to study the distribution of fluorescence signal within the material. In case of Rhodamine B, emission was detected between 575 and 674 nm, while in case of carboxy fluorescein emission was detected between 480 and 580 nm. […]"}
{"compound": "CCCCCCCC/C=C\\CCCCCCCC(=O)OC[C@H](COP(=O)(O)OCCNC(=O)c1ccc2c(c1)C(=O)OC21c2ccc(O)cc2Oc2cc(O)ccc21)OC(=O)CCCCCCC/C=C\\CCCCCCCC.N.N", "note": "[DOPE-CF]", "values": [{"measurement": "Distribution of fluorophore labeled lipid in the marker", "value": "clearly higher distribution of DOPE-RhB and DOPE-CF in the rim of the injected formulation"}]}
